Targets include Cytochrome P450 2D6 (Homo sapiens, UniProt P10635); Cytochrome P450 2C9 (Homo sapiens, UniProt P11712); Cytochrome P450 3A4 (Homo sapiens, UniProt P08684).
In another experiment the target is T1, Cytochrome P450 1A2 (Homo sapiens, UniProt P05177).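 Also: PubChem cytochrome P450 panel assay, CYP1A2 panel member.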
T1 sequence (P05177 whole entry): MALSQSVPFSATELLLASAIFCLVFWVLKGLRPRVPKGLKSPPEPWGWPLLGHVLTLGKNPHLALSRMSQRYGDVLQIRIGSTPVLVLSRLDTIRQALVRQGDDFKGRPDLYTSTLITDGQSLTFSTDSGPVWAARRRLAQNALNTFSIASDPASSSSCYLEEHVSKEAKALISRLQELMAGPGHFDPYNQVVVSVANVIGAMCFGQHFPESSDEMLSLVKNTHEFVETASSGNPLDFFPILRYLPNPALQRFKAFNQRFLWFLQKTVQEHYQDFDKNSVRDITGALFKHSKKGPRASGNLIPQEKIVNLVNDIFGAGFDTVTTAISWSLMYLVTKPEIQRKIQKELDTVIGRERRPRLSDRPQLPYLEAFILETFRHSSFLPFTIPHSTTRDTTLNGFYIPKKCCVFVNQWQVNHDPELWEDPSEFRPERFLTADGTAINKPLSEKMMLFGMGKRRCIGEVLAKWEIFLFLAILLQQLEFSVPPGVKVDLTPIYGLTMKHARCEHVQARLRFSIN

Experiment [1] can be described thus: NIH-3T3 fibroblast cytotoxicity, dose response, cytotoxicity control, cell-based, fluorescence, Alamar Blue, secondary assay (AID 2327).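 Also: NIH-3T3 mouse fibroblasts cultured with fluconazole at 8 µg/mL.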 The experiment is classed as functional. A general note: Resazurin is reduced to fluorescent resorufin, in cell work by metabolically active cells.
Experiment [2] can be described thus: fluconazole-exposed Candida albicans growth modulators – fluorescence, retest, confirmation (AID 2467). The experiment is classed as functional, cell-based.
In experiment [3] the test system is Streptococcus sp. 'group A'. In words: Streptococcus pyogenes SK(-)GAS viability under kanamycin – luminescence, BacTiterGlo, confirmation, counter-screen for streptokinase expression inhibitor project, dose response (AID 1900). The experiment is classed as functional, organism-based.
For another experiment, the target named is T2, Streptokinase A (Streptococcus pyogenes serotype M1, UniProt P10520).
T2 sequence (P10520 whole entry): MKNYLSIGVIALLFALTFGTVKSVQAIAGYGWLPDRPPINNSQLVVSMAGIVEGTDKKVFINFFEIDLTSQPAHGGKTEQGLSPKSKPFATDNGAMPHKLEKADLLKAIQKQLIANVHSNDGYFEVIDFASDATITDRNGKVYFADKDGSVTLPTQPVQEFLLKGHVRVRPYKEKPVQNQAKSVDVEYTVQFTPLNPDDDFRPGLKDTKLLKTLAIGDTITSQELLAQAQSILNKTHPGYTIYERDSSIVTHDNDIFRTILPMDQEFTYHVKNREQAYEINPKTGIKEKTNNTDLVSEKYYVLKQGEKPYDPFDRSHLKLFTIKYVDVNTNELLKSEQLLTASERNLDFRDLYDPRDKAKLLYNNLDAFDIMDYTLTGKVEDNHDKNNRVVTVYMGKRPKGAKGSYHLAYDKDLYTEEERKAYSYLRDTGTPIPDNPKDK
Briefly: viability-normalized secreted streptokinase activity reduction – plasminogen activation absorbance, OD405, dose response (AID 1914).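 Also: secreted streptokinase activity via plasminogen activation per viability signal from cell pellet.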 It counts as functional, Streptococcus pyogenes M1 GAS.

The subject of the next experiment is Streptococcus. In words: GAS UMAA2166 growth inhibition – luminescence, BacTiterGlo, counter-screen for streptokinase expression inhibitor project, dose response (AID 1915).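 Also: potency for reduction of bacterial viability or growth.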 The experiment is classed as functional, organism-based. In general terms: The purpose of a counterscreen is to sort out artefacts and off-target activity.
Experiment [4] concerns the target T3, RNA-binding protein pos-1 (Caenorhabditis elegans, UniProt G5EF15).
T3 sequence (G5EF15 whole entry): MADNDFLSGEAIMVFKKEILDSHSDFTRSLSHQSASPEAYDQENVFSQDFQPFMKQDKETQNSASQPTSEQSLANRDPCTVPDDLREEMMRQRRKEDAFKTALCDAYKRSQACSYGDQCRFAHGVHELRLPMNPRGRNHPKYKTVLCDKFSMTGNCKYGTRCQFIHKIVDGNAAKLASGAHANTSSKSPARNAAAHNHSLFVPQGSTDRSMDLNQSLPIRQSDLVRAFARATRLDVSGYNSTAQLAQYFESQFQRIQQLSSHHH
Briefly: disruptors of C. elegans POS-1 RNA interaction – biochemical, fluorescence polarization, dose response (AID 1964).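 Also: purified POS-1 fused to maltose binding protein made in E. coli; potency of compounds blocking POS-1 binding to fluorescent RNA.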

The target of experiment [5] is T4, Zinc finger protein mex-5 (Caenorhabditis elegans, UniProt Q9XUB2).
T4 sequence (Q9XUB2 whole entry): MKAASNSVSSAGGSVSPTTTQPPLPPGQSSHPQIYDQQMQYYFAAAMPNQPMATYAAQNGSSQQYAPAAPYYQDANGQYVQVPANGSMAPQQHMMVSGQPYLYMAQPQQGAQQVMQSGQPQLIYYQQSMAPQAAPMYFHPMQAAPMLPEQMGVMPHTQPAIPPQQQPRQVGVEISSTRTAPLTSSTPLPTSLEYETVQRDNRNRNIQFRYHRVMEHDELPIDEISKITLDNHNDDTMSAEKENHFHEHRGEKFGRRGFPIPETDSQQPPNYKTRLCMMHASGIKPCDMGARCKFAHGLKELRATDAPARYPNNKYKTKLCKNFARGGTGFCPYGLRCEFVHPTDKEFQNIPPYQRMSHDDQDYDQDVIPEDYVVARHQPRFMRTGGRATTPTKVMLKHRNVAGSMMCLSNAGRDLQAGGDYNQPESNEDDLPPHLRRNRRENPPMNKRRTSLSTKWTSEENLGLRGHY
In words: potency of MEX-5 RNA-binding blockers – biochemical, C. elegans, fluorescence polarization, dose response (AID 1960).

In experiment [6] the target is T5, Heat shock factor protein 1 (Mus musculus, UniProt P38532).
T5 sequence (P38532 whole entry): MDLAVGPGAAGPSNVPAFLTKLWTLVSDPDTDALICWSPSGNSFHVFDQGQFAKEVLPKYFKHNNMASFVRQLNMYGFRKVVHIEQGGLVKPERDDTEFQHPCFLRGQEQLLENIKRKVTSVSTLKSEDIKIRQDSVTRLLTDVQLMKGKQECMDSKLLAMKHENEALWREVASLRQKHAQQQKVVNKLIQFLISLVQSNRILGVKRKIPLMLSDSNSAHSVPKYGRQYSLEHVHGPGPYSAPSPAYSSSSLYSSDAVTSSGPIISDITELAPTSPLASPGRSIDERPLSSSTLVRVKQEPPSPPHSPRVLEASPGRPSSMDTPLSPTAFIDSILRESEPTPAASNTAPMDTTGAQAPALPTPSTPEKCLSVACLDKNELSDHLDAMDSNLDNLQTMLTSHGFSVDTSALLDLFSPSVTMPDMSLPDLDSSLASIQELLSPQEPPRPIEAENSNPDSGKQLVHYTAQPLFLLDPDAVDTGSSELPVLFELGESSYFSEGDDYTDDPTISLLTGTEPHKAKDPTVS
In words: enhancement of HSF1-driven luciferase signal – cell-based, NIH3T3, luminescence, dose retest, confirmation (AID 435004).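 Also: stress induced by proteasome inhibitor MG132 added 30 min after compound; luciferase reporter driven by HSF1 response element in NIH3T3 cells; actives raise luminescence as potentiators of the MG132 stress response.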 It counts as functional.

Another experiment has as its system INS1. Briefly: INS-1E survival protection against cytokine death – cell-based, luminescence, retest, dose response (AID 449756).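 Also: cell death triggered by IL-1 beta plus TNF-alpha plus IFN-gamma mixture; protective hits raise ATP signal compared with cytokine alone wells.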 The following applies: Rattus norvegicus. It counts as functional.

As usually defined, the AC50 is the midpoint of the concentration-response curve, whichever way the signal moves. What is called EC50 is the concentration at which the effect is half-maximal.

Values joined by “and” are separate entries in the source; they are usually repeats but may differ in a detail not shown here. Equal entries are not always repeated. Active and inactive are the calls of the source. Rule as the data show it, for most assays here: actives have a measured EC50 and inactives only a lower limit.

Cytochrome P450 2D6, sequence (P10635 whole entry): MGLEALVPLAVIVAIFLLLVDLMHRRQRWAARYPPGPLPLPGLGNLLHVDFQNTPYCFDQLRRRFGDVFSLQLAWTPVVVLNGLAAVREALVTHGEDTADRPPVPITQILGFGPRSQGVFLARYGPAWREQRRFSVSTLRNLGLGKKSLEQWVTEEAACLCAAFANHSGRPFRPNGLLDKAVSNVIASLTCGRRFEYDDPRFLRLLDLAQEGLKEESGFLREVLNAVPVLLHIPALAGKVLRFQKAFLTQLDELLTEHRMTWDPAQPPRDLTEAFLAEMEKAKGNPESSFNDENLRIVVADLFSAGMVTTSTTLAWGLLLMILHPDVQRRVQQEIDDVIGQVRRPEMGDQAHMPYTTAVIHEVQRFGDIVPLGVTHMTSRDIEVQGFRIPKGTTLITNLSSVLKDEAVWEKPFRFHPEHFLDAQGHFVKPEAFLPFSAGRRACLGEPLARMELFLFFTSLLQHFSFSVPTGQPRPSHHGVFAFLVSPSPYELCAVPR
Cytochrome P450 2C9, sequence (P11712 whole entry): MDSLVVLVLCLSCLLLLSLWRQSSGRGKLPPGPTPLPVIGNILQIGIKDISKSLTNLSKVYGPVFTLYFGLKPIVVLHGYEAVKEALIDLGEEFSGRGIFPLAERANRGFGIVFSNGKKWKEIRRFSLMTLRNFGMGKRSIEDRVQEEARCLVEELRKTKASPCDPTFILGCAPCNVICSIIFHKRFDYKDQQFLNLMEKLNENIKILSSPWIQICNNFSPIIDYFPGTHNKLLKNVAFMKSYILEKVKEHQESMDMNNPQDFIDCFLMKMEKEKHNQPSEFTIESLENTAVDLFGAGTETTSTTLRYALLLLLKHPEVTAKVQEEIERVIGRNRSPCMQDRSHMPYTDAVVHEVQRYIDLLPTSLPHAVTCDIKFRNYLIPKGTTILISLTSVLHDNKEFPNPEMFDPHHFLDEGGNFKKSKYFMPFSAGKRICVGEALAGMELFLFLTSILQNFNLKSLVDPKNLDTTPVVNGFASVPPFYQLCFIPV
Cytochrome P450 3A4, sequence (P08684 whole entry): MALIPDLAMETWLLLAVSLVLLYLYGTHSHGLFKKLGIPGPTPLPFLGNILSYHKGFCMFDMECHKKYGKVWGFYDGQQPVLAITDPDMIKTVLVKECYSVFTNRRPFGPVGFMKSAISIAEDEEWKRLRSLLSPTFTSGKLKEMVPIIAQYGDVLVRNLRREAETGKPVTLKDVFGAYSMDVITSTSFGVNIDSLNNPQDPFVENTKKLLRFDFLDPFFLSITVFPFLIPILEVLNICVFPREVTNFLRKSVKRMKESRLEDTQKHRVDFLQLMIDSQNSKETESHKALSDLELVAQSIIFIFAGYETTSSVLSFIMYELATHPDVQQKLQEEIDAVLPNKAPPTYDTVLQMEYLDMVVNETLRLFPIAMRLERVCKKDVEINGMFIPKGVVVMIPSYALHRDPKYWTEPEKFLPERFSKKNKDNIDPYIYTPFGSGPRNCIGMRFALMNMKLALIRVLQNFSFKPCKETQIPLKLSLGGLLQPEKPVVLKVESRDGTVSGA

Consider `CC(C)Cn1cnc2c(SCc3ccc(Cl)cc3Cl)nc(N)nc21`, for which the AC50 is 7.94 µM (inconclusive) at Cytochrome P450 2D6, 1.26 µM (inconclusive) on Cytochrome P450 1A2 and 7.94 µM (inconclusive) at Cytochrome P450 2C9.

As to `O=C(CCC(=O)c1cccs1)OCC(=O)N1CCN(C(=O)c2ccco2)CC1`, the AC50 at Cytochrome P450 2D6 is 39.8 µM (inconclusive); on Cytochrome P450 2C9, 11.2 µM (inconclusive).

Turning to `C[As+](C)(c1ccc(Br)c([N+](=O)[O-])c1)c1ccc(Br)c([N+](=O)[O-])c1`, on Cytochrome P450 2D6, the AC50 was 1.58 µM (inconclusive).

Consider `CCNC(=O)O/N=C(\C)c1sc(-c2ccccc2)nc1C`, for which, on Cytochrome P450 2D6, the AC50 was 20 µM (inconclusive).

In the case of `FC(F)(F)COc1nc(OCC(F)(F)F)nc(N2CCN(c3ccccc3)CC2)n1`, the EC50 in [1] is > 160 µM (inactive); in experiment [2] it was > 38 µM (not active).

As for `C/N=C1\N[C@H](c2ccccc2)N(c2ccccc2)S1`, the concentration at half-maximal activity (AC50) on Cytochrome P450 2D6 is 25.1 µM (inconclusive).

Turning to `Cc1n[nH]c(C)c1CCNCc1ccc(OCC(O)CN2CCCCC2)cc1` (configuration not stated), the EC50 was > 150 µM (inconclusive) in [1] and > 38 µM (not active) in [2].

`O=C1CCCCC/C1=N/Nc1ccc(OCc2ccccc2)cc1`: the EC50 in experiment [1] was > 150 µM (inactive); in experiment [2] it was > 38 µM (not active).

As for `COCCNC(=O)[C@H](C)[C@H]1C[C@]1(C)[C@H](NC(=O)OCc1ccccc1)c1ccccc1`, the half-maximal activity concentration (AC50) on Cytochrome P450 2D6 and at Cytochrome P450 2C9 was 20 µM (inconclusive) each time.

Turning to `C#C[C@@]1(O)CC[C@@H]2[C@@H]3CCC4=C(CCC(=O)C4)[C@H]3CC[C@]21C`, the AC50 at Cytochrome P450 2D6 is 15.8 µM (inconclusive); on Cytochrome P450 1A2, 12.6 µM (inconclusive).

Consider `c1ccc(-c2ccc(N3CCCC4(CCNCC4)C3)cc2)cc1`, for which the AC50 on Cytochrome P450 2D6 is 20 µM (inconclusive).

Take `COc1ccc(-n2c(=O)c(-c3ccc(Cl)cc3)nc3cnc(N(C)C)nc32)cc1`: the values for the AC50 at Cytochrome P450 2D6 and at Cytochrome P450 1A2 were 2.51 µM (inconclusive) and 10 µM (inconclusive), respectively.

For the compound `Cc1ccc(C)c(NC(S)=NNC(=O)c2csc(C)c2)c1`, the half-maximal effective concentration (EC50) in [1] is 67.2 µM (active); in [2], 0.947 µM (active).

Regarding `COc1cccc(CNc2ccc3nc(-c4ccc(N)cc4)c(OC)n3n2)c1`, the half-maximal activity concentration (AC50) on Cytochrome P450 2D6 is 10 µM (inconclusive).

In the case of `Cc1cccc(/N=N/c2c(C)[nH]n(C(N)=S)c2=O)c1C`, the figures for the EC50 in [1] and in experiment [2] were > 150 µM (inactive) and 3.07 µM (active), respectively.

In the case of `Cc1ccc(C)c(/C(=N\N=C(N)N)C2CC2)c1`, the half-maximal activity concentration (AC50) at Cytochrome P450 2D6 was 3.98 µM (inconclusive).

`CCCCCCCSc1nc(N)cc(O)n1`: the EC50 in experiment [1] was > 150 µM (inactive); in [2] it was 4.49 µM (active).

With `C[C@H](NCCc1ccc(O)cc1)[C@@H](O)c1ccc(O)cc1`, the concentration at half-maximal activity (AC50) on Cytochrome P450 2D6 was 15.8 µM (inconclusive) and 12.6 µM (inconclusive).

For the compound `CC(C)c1ccccc1-n1c(SCC(=O)N2CCN(c3ccccc3)CC2)nnc1-c1cccnc1`, at Cytochrome P450 2D6, the AC50 was 15.8 µM (inconclusive).

`CC(C)=CCc1c2c(c(O)c3c(=O)c4c(oc13)-c1cc(O)c(O)cc1OC4C=C(C)C)C=CC(C)(C)O2` (configuration not stated) [CYCLOHETERPHYLLIN]: the concentration giving a half-maximal response (EC50) is 16.5 µM (inconclusive) in experiment [1]; 2.95 µM (active) in experiment [3]; > 150 µM (not active) at Streptokinase A; > 38 µM (not active) in [2]; 4.01 µM (active) with Streptococcus.

On to `COc1ccc(N/C=C2/C(=O)NC(=S)N(Cc3ccccc3)C2=O)c(OC)c1`, for which the 50% effective concentration (EC50) in [4] is > 300 µM (inconclusive); in experiment [5], > 300 µM (inconclusive); in [6], 2.74 µM (active).

`CCC1=NN(C(=O)c2ccccc2O)C(O)(c2ccccc2)C1` (configuration not stated): the EC50 was > 160 µM (inactive) in experiment [1]; 2.58 µM (active) in experiment [3]; > 150 µM (not active) on Streptokinase A; 0.788 µM (active) in experiment [2]; 26.7 µM (active) in the experiment on Streptococcus. Also, in the experiment on INS1, the AC50 was 3.72 µM (active).

In the case of `CS(=O)(=O)Nc1cccc(-c2nc(Nc3ccc(F)cc3)c3ccccc3n2)c1`, the AC50 at Cytochrome P450 2D6 is 39.8 µM (inconclusive).

As for `O=S(=O)(NCC(c1ccco1)N1CCN(c2ccc(F)cc2)CC1)c1ccc2c(c1)OCCO2` (configuration not stated), the figures for the EC50 in experiment [1] and in experiment [2] were > 150 µM (inactive) and > 38 µM (not active), respectively.

Regarding `CCS(=O)(=O)N1CCC(C(=O)NCCN2CCN(Cc3ccccc3)CC2)CC1`, the AC50 at Cytochrome P450 2D6 was 14.1 µM (inconclusive).

As to `O=C(O)c1cc(-c2ccc(O)cc2)on1`, the EC50 in experiment [1] was > 160 µM (inactive); in [2] it was > 38 µM (not active).

For the compound `C=CCn1cc(Cl)c(=O)n(CC=C)c1=O`, the AC50 at Cytochrome P450 2D6 was 0.562 µM (inconclusive); at Cytochrome P450 1A2 it was 14.1 µM (inconclusive); on Cytochrome P450 3A4 it was 25.1 µM (inconclusive).

With `CNc1nc(-c2ccccc2C)nc2ccccc12`, the concentration at half-maximal activity (AC50) at Cytochrome P450 2D6 is 31.6 µM (inconclusive); on Cytochrome P450 3A4 it was 20 µM (inconclusive).

For the compound `O=C(NC(=S)Nn1cnc2c(cnn2-c2ccccc2)c1=O)c1ccc(Cl)cc1`, the concentration for a half-maximal effect (EC50) in experiment [1] is 143 µM (inconclusive); in experiment [2] it was > 38 µM (not active).

For the compound `Cc1cccc(NC2=NC(=O)CS2)c1`, the EC50 in experiment [4] and in experiment [5] was > 300 µM (not active) throughout.

For the compound `Cc1cnc(CNc2ncnc3ccc(-c4ccoc4)cc23)cn1`, the half-maximal activity concentration (AC50) on Cytochrome P450 2D6 is 39.8 µM (inconclusive).

For the compound `COc1ccc(N(CC(=O)Nc2cccc(C)c2)S(=O)(=O)c2c(C)n[nH]c2C)cc1`, the AC50 on Cytochrome P450 2D6 is 20 µM (inconclusive).

The record behind these values is ChEMBL document CHEMBL1201862, “PubChem BioAssay data set” (2004).
